By IC50 is commonly meant the midpoint of a concentration-inhibition curve.

In one assay the test system is HBV. Nature of the assay: HBV replication in chronically infected HepG2 2.2.15 cells (TaqMan PCR of HBV DNA). The class given is cell-based, Hepatitis B virus. Conditions: for IC50: chronically HBV-infected HepG2 2.2.15 cells. The protocol: Human HepG2-2.2.15 cells (ATCC Cat. No. CRL-11997), chronically infected with HBV, are plated in 96-well microtiter plates in DMEM medium supplemented with fetal bovine serum. After incubation at 37° C. in a humidified, 5% CO2 environment for 16-24 hours, the monolayer of HepG2-2.2.15 cells is washed and the medium is replaced with complete medium containing various concentrations of test compound. Every three days during the experiments, the culture medium is replaced with fresh medium containing the appropriately diluted test compound. Six days following the initial administration of the test compound, the cell culture supernatant is collected and clarified by centrifugation. The cell viability is evaluated by a dye uptake procedure (Promega's Cell Titer Aqueous One Solution). Virion-associated HBV DNA present in the tissue culture supernatant is amplified employing PCR technology using primer pairs derived from the HBV strain ayw. Subsequently, the PCR-amplified HBV DNA is detected in real-time by monitoring increases in fluorescence signals that result from exonucleolytic degradation of a quenched fluorescent probe molecule following hybridization of the probe to the amplified HBV DNA (TaqMan; Perkin-Elmer).
Background: In qPCR the cycle at which signal appears reflects the starting amount.

The test system of assay [1] is macrophage-tropic HIV-1Ba-L strain. Nature of the assay: Inhibition of macrophage-tropic HIV-1 Ba-L replication in de novo infected PM1 cells (p24 antigen). The class given is cell-based. To be noted: d10. As to the method: HIV replication was measured either by p24 HIV Antigen Capture Assay Kit (ELISA; HIVAG-1 Monoclonal kit BIA011; Abbott) following the manufacturer's recommendation, or by using the Quantiplex HIV-1 RNA 3.0 Assay (bDNA) system (Chiron Diagnostics). The latter assay is a signal amplification nucleic acid probe assay (employing a sandwich nucleic acid hybridization procedure) for direct quantitation of HIV RNA in human plasma. There, in brief, HIV-1 is first concentrated from plasma by centrifugation. After release of genomic HIV-1 RNA from the virions, the RNA is captured to a microwell by a set of specific, synthetic oligonucleotide capture probes. A set of target probes hybridize to both the viral RNA and the pre-amplifier probes. The capture probes, comprised of 17 individual capture extenders, and the target probes, comprised of 81 individual target extenders, bind to different regions of the pol gene of the viral RNA. The amplifier probe hybridizes to the pre-amplifier forming a branched DNA (bDNA) complex. Then, multiple copies of an alkaline phosphatase labeled probe are hybridized to this immobilized bDNA complex. Detection is achieved by incubating the entire complex with a chemoluminescent substrate. Light emission is directly proportional to the amount of HIV-1 RNA present in each sample, and results are recorded as relative light units by an appropriate analyzer.
Jurkat cells (species: human T-cell leukemia; special characteristics: cells are permissive for growth of T-cell tropic HIV strains; source:ATCC Cat.No. TIB 152) or PM1 cells (species: clonal derivative of human HUT 78 cells; special characteristics: cells are permissive for growth of macrophage-tropic and T-cell tropic HIV strains; source: Dr. Marvin Reitz, courtesy of the NIH AIDS Research and Reference Reagent Program Cat.No. 3038) were stimulated with Phytohemagglutinin (PHA-P, Product No. L9132 from Sigma) in a concentration of 2 μg/ml (1.5×10^6 cells/ml) and Hexadimethrine Bromide (Polybrene, Product No. H9268 from Sigma) in a concentration of 2 μg/ml (1.5×10^6 cells/ml) in RPMI 1640 medium containing 10% fetal calf serum (FCS, Pansystems GmbH) and antibiotics for 3 days.
For HIV-1 infection, 5×10^7 cells were resuspended in 500 μl culture medium without test drugs and incubated in a 50 ml blue-cap-tube at 37° C. for 5 hrs with HIV-1 high titer viral stocks. Jurkat cells were infected with the T-cell tropic strain HIV-1 NL4-3, PM1 cells with the macrophage tropic strain HIV-1 Ba-L (both from the NIH AIDS Research and Reference Reagent Program). After infection, cells were washed twice with PBS without Ca^2+ and Mg^2+ to avoid false positive p24 antigen determination. Cells were resuspended, and identical aliquots (1×10^6/ml) of infected cells were further cultured in 10 ml medium with test drugs at various concentrations, or in medium with DMSO as control for calculation of the inhibition of virus replication (in %].
Culture medium was changed and cells were split at days 3 and 7 of the experiments. Viability of the cells (Trypan-blue staining), cell counts and p24 antigen levels were determined at days 3, 7 and 10 of the experiments. No significant differences in cell viability were observed (˜85-90% living cells).
At day 10 of infection, the HIV strains replicated vigorously in untreated cultures. Numbers describe percent inhibition of HIV replication as compared to control experiments.

Assay [2] deals with herpes simplex virus type 1 (strain HF). Nature of the assay: HSV-1 cytopathic effect (CPE) inhibition assay in Vero cells (MTS). The class given is cell-based. An excerpt: A virus-induced cytopathic effects (CPE)-inhibition assay procedure using Promega's Cell Titer Aqueous One Solution (MTS, metabolic dye) is employed to evaluate compounds for antiviral activity against herpes simplex virus type 1 (strain HF) in Vero cells (African green monkey cells, ATCC Cat. No. CCL-81). Vero cells are pregrown in 96-well tissue culture plates using Dulbecco's Modified Eagle's Medium (DMEM) supplemented with 10% heat-inactivated fetal bovine serum (FBS), L-glutamine, penicillin, and streptomycin. To each of the replicate cell cultures is added 50 μl of the test drug solution and 50 μl of virus suspension. Cell controls containing medium alone, virus-infected controls containing medium and virus, drug cytotoxicity controls containing medium and each drug concentration, reagent controls containing culture medium only (no cells), and drug calorimetric controls containing drug and medium (no cells) are run simultaneously with the test samples. The plates are incubated at 37° C. in a humidified atmosphere containing 5% CO2 until maximum CPE is observed in the untreated virus control cultures (Day 5). CPE inhibition is determined by a dye (MTS) uptake procedure. […] The purple color of the MTS formazan is then measured spectrophotometrically at 490/650 nm. […]
(Cytopathic effects are the visible damage that an infection or toxin causes in cultured cells.)

Structures are written as SMILES. Like-named read-outs stand apart in the source and are kept apart here.

Turning to `CC(=NNC(=N)N)c1cc(NC(=O)CCCCCCCCC(=O)Nc2cc(C(C)=NNC(=N)N)cc(C(C)=NNC(=N)N)c2)cc(C(C)=NNC(=N)N)c1` [Compound 4, N,N′-bis (3,5-diacetylphenyl) decane diamide tetrakis (amidinohydrazone)], the Comments result in the assay on HBV (HBV, HepG2 2.2.15 cells) is listed as “Active”; in assay [2] (HSV-1, Vero cells), “Active”. Besides, the IC50 in the assay on HBV (six days, read-out: IC50 (μM) Virion-DNA) came to 3.19 µM; with HBV (read-out: IC50 (μM) Intracellular Viral DNA), 4.96 µM; in assay [2] (HSV-infected Vero cells, reduces the CPE by 50%) it was 1.56 µM. The results for the “percent inhibition of HIV replication as compared to control” value in assay [1] (0.5 μM) and in assay [1] (1.0 μM) were 82% and 73%, respectively.

Source of the values: US20030203969A1, “Pharmaceutically active aromatic guanylhydrazones” (priority 2000, published 2003).
